The series is described as follows: UV-vis stability in PBS, DMEM and RPMI-1640. Particulars: 50 μM, DMEM, RPMI-1640, 37 °C, over 24 h. The format is physicochemical. The text has this:
We next evaluated the stability of all ten complexes in three relevant biological media, namely, PBS (phosphate-buffered saline), DMEM (Dulbecco's modified eagle medium), and RPMI-1640 (Roswell Park Memorial Institute-1640). RPMI-1640 contain several biological nucleophiles such as amino acids and extracellular relevant levels of GSH, which are common sources of reductants. Development of new drug molecules require proper characterization of compound stability in solution. To evaluate their stability, the complexes were prepared as a stock solution in DMSO (5 mM) and diluted with PBS or DMEM at room temperature to a final concentration of 50 μM. […]
UV-vis Stability in DMEM, PBS and RPMI-1640 at 37 °C. All spectra were recorded on a Shimadzu UV-1280 model instrument. […] Time periods of t = 0 h (after preparation of sample), 1 h, 6 h, 12 h, and 24 h were recorded. […] The absorbance profile was scanned from 650 nm to 240 nm for each scan. For each complex, the data were normalized to the highest absorbance at t = 0 h and plotted in GraphPad Prism 6. […]
Reactivity with GSH (UV-vis Spectroscopy). […] All spectra were recorded on a Shimadzu UV-1280 model instrument.
A blank was prepared by mixing 50 µL of DMSO and 1.95 mL of PBS. Time intervals of 5 minutes and 12 h were recorded. […] For each reaction, the spectrum was normalized to the highest absorbance and plotted in GraphPad Prism 6. […]

Molecules are shown by their SMILES. Entries after “also recorded” stand apart in the source; their conditions may differ.

As to `C[N+](C)=C1[S][Au-2]2([S]1)[c]1ccccc1C(=O)c1cccc[n+]12.F[P-](F)(F)(F)(F)F` (centres unmarked) [1a], the “Stability in biological media (UV-vis absorbance)” value is reported as “no significant decrease in absorbance”. Then `C[N+](C)=C1[S][Au-2]2([S]1)[c]1ccccc1Cc1cccc[n+]12.F[P-](F)(F)(F)(F)F` (centres unmarked) [2a], with “higher stability in PBS, and DMEM; also recorded: no significant decrease in absorbance”.
